Test results as given in ChEMBL document CHEMBL2074249, “Fruit juices inhibit organic anion transporting polypeptide-mediated drug uptake to decrease the oral availability of fexofenadine” (Clin Pharmacol Ther, 2002).

Key:
Type in all cases: functional, cell-based
[1] = target: T1, Oatp3 (Solute carrier organic anion transporter family member 1A5) (Rattus norvegicus, UniProt O88397); assay: TP_TRANSPORTER: inhibition of Fexofenadine uptake (Fexofenadine: 1? uM, 6',7'-Dihydroxybergamottin: 50 uM) in Oatp3-expressing HeLa cells; design: scale not given: the % may be the effect or the level left; conditions: human, HeLa cells that express Oatp3, probe fexofenadine; read-out: Activity
T1 sequence (O88397 whole entry): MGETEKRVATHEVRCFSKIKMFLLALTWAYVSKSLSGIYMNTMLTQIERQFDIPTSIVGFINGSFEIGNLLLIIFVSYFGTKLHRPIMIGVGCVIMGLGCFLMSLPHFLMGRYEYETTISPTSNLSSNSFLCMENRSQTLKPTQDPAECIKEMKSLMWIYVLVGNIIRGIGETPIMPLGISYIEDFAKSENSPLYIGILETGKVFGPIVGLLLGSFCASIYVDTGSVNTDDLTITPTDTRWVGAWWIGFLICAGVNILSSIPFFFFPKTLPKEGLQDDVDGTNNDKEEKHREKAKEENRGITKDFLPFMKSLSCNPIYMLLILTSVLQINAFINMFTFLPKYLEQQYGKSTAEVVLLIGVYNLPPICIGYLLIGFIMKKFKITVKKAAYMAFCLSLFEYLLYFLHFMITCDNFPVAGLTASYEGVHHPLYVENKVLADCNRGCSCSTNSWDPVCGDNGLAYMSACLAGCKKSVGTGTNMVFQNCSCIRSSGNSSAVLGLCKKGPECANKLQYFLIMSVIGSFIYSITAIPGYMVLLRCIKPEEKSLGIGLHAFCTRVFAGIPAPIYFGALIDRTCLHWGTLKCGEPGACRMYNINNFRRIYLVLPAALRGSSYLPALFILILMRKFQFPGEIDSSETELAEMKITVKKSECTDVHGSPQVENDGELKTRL

[2] = target: T1, Oatp3 (Solute carrier organic anion transporter family member 1A5); assay: TP_TRANSPORTER: inhibition of Fexofenadine uptake (Fexofenadine: 1? uM, Bergamottin: 50 uM) in Oatp3-expressing HeLa cells; design: scale not given: the % may be the effect or the level left; conditions: human, HeLa cells that express Oatp3, probe fexofenadine; read-out: Activity
[3] = target: T1, Oatp3 (Solute carrier organic anion transporter family member 1A5); assay: TP_TRANSPORTER: inhibition of Fexofenadine uptake (Fexofenadine: 1? uM, 5-Methoxypsoralen: 50 uM) in Oatp3-expressing HeLa cells; design: scale not given: the % may be the effect or the level left; conditions: human, HeLa cells that express Oatp3, probe fexofenadine; read-out: Activity
[4] = target: T1, Oatp3 (Solute carrier organic anion transporter family member 1A5); assay: TP_TRANSPORTER: inhibition of Fexofenadine uptake (Fexofenadine: 1? uM, Hesperitin: 5 uM) in Oatp3-expressing HeLa cells; design: scale not given: the % may be the effect or the level left; conditions: human, HeLa cells that express Oatp3, probe fexofenadine; read-out: Activity
[5] = target: T1, Oatp3 (Solute carrier organic anion transporter family member 1A5); assay: TP_TRANSPORTER: inhibition of Fexofenadine uptake (Fexofenadine: 1? uM, Hesperidin: 50 uM) in Oatp3-expressing HeLa cells; design: scale not given: the % may be the effect or the level left; conditions: human, HeLa cells that express Oatp3, probe fexofenadine; read-out: Activity
[6] = target: T1, Oatp3 (Solute carrier organic anion transporter family member 1A5); assay: TP_TRANSPORTER: inhibition of Fexofenadine uptake (Fexofenadine: 1? uM, Naringenin: 50 uM) in Oatp3-expressing HeLa cells; design: scale not given: the % may be the effect or the level left; conditions: human, HeLa cells that express Oatp3, probe fexofenadine; read-out: Activity
[7] = target: T1, Oatp3 (Solute carrier organic anion transporter family member 1A5); assay: TP_TRANSPORTER: inhibition of Fexofenadine uptake (Fexofenadine: 1? uM, Naringin: 5 uM) in Oatp3-expressing HeLa cells; design: scale not given: the % may be the effect or the level left; conditions: human, HeLa cells that express Oatp3, probe fexofenadine; read-out: Activity
[8] = target: T1, Oatp3 (Solute carrier organic anion transporter family member 1A5); assay: TP_TRANSPORTER: inhibition of Fexofenadine uptake (Fexofenadine: 1? uM, Quercetin: 5 uM) in Oatp3-expressing HeLa cells; design: scale not given: the % may be the effect or the level left; conditions: human, HeLa cells that express Oatp3, probe fexofenadine; read-out: Activity
[9] = target: T2, Solute carrier organic anion transporter family member 1A5 (Rattus norvegicus, UniProt O88397); assay: TP_TRANSPORTER: inhibition of Fexofenadine uptake (Fexofenadine: 1 uM, Apple juice: 5 %) in Oatp3-expressing HeLa cells; conditions: human
T2 sequence (O88397 whole entry): T1 sequence (O88397 whole entry)

[10] = target: T3, Solute carrier organic anion transporter family member 1A1 (Rattus norvegicus, UniProt P46720); assay: TP_TRANSPORTER: inhibition of Fexofenadine uptake (Fexofenadine: 1 uM, Apple juice: 5 %) in Oatp1-expressing HeLa cells; conditions: human
T3 sequence (P46720 whole entry): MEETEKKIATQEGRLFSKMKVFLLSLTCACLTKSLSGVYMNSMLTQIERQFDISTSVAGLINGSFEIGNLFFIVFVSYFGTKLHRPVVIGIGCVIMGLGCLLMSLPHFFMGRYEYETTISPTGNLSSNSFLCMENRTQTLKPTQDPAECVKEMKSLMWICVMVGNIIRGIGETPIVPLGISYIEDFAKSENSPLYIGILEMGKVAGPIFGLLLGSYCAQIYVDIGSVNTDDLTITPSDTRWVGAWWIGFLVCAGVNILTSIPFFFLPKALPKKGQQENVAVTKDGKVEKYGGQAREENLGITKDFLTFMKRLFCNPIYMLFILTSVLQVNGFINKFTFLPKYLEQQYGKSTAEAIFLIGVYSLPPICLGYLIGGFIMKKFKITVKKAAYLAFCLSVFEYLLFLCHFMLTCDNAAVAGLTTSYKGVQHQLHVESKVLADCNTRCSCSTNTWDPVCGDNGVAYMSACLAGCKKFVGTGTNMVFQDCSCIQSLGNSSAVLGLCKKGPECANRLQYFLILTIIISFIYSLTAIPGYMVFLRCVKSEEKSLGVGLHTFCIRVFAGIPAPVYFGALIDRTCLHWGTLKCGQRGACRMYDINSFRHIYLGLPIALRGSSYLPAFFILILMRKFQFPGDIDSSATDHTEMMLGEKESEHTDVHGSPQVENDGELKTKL

[11] = target: T4, Solute carrier organic anion transporter family member 1A2 (Homo sapiens, UniProt P46721); assay: TP_TRANSPORTER: inhibition of Fexofenadine uptake (Fexofenadine: 1 uM, Grapefruit juice: 5 %) in OATP-A-expressing HeLa cells
T4 sequence (P46721 whole entry): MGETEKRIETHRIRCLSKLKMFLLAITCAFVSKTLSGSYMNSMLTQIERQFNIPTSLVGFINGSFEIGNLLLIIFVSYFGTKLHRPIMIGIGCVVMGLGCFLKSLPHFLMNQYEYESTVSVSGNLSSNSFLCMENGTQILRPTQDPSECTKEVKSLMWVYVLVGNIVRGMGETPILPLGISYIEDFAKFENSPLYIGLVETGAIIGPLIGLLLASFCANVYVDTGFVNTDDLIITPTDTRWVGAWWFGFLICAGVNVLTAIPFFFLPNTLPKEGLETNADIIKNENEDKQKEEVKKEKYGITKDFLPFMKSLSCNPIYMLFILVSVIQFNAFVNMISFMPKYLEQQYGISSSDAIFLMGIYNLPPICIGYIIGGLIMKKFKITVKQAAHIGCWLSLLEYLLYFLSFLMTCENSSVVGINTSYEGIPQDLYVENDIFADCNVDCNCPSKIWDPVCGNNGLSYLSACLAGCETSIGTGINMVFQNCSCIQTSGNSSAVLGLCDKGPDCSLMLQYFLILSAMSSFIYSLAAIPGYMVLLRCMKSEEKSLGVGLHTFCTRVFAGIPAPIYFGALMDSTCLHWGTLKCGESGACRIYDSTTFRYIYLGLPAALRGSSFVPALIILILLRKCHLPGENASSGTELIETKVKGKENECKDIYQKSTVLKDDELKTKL

[12] = target: T5, Solute carrier organic anion transporter family member 1A4 (Rattus norvegicus, UniProt O35913); assay: TP_TRANSPORTER: inhibition of Fexofenadine uptake (Fexofenadine: 1 uM, Grapefruit juice: 5 %) in Oatp2-expressing HeLa cells; conditions: human
T5 sequence (O35913 whole entry): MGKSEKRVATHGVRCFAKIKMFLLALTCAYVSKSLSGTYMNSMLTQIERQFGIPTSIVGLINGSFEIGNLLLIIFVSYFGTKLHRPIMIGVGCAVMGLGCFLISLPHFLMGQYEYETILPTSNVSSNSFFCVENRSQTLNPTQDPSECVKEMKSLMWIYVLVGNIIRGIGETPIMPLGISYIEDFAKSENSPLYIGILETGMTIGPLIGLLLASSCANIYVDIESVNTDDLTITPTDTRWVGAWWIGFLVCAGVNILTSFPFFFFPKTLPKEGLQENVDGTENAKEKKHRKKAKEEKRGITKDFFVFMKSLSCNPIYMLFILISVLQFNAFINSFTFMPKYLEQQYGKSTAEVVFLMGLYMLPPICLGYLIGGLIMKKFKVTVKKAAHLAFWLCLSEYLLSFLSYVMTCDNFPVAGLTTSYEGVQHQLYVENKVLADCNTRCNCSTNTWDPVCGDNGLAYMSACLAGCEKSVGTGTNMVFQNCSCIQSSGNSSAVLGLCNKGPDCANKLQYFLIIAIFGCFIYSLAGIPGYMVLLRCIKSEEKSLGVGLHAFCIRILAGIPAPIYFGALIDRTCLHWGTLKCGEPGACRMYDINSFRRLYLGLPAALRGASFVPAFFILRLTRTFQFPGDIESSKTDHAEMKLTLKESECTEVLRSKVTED

[13] = target: T3, Solute carrier organic anion transporter family member 1A1; assay: TP_TRANSPORTER: inhibition of Fexofenadine uptake (Fexofenadine: 1 uM, Grapefruit juice: 5 %) in Oatp1-expressing HeLa cells; conditions: human
[14] = target: ATP-dependent translocase ABCB1 (Homo sapiens, UniProt P08183); assay: TP_TRANSPORTER: inhibition of Vinblastine transepithelial transport (basal to apical) (Vinblastine: 5 uM, Grapefruit juice: 5 %) in MDR1-expressing LLC-PK1 cells; conditions: pig
[15] = target: T4, Solute carrier organic anion transporter family member 1A2; assay: TP_TRANSPORTER: inhibition of Fexofenadine uptake (Fexofenadine: 1 uM, Orange juice: 5 %) in OATP-A-expressing HeLa cells
[16] = target: T5, Solute carrier organic anion transporter family member 1A4; assay: TP_TRANSPORTER: inhibition of Fexofenadine uptake (Fexofenadine: 1 uM, Orange juice: 5 %) in Oatp2-expressing HeLa cells; conditions: human
[17] = target: T3, Solute carrier organic anion transporter family member 1A1; assay: TP_TRANSPORTER: inhibition of Fexofenadine uptake (Fexofenadine: 1 uM, Orange juice: 5 %) in Oatp1-expressing HeLa cells; conditions: human
[18] = target: T2, Solute carrier organic anion transporter family member 1A5; assay: TP_TRANSPORTER: inhibition of Fexofenadine uptake (Fexofenadine: 1 uM, Orange juice: 5 %) in Oatp3-expressing HeLa cells; conditions: human

Chain of ATP-dependent translocase ABCB1 (P08183 whole entry): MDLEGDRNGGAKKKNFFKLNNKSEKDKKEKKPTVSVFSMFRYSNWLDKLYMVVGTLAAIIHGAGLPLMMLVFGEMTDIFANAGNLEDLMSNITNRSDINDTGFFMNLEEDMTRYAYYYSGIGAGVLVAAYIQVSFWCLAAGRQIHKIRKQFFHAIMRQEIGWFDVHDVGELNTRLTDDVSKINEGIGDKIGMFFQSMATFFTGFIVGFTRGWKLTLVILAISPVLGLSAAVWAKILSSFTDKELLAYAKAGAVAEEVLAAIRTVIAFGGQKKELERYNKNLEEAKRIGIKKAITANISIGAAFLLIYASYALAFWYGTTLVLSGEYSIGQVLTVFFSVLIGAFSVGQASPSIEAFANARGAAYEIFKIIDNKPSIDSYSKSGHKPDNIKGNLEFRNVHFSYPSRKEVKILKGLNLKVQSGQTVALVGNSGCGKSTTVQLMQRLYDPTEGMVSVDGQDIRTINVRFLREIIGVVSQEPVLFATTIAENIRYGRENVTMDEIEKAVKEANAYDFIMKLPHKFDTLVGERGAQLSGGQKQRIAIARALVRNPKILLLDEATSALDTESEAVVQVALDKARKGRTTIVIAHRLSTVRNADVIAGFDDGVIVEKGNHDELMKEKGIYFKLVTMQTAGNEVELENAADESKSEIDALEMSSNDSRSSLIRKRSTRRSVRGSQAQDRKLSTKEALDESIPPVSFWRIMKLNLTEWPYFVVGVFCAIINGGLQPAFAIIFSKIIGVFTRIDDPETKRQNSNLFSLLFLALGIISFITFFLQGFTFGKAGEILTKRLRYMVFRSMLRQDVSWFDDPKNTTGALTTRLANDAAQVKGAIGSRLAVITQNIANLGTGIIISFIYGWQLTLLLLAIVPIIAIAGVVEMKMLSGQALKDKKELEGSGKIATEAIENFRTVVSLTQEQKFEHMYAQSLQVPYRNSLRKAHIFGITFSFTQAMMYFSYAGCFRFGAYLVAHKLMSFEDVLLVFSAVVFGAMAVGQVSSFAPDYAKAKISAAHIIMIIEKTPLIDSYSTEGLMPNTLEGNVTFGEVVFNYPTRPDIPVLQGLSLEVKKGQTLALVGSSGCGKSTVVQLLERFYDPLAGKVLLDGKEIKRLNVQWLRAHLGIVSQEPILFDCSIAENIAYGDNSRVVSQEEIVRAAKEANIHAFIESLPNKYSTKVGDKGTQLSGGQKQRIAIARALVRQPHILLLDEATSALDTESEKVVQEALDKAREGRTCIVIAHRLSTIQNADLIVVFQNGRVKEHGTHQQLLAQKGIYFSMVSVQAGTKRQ

Molecule: C/C(=C\COc1c2ccoc2cc2oc(=O)ccc12)CC[C@@H](O)C(C)(C)O
- activity at 50 µM [1]: 22%

Molecule: CC(C)=CCC/C(C)=C/COc1c2ccoc2cc2oc(=O)ccc12 [BERGAMOTTIN]
- activity at 50 µM [2]: 22%

Molecule: COc1c2ccoc2cc2oc(=O)ccc12 [BERGAPTEN]
- activity at 50 µM [3]: 32%

Molecule: COc1ccc([C@@H]2CC(=O)c3c(O)cc(O)cc3O2)cc1O [HESPERETIN]
- activity at 5 µM [4]: 40%

Molecule: COc1ccc([C@@H]2CC(=O)c3c(O)cc(O[C@@H]4O[C@H](CO[C@@H]5O[C@@H](C)[C@H](O)[C@@H](O)[C@H]5O)[C@@H](O)[C@H](O)[C@H]4O)cc3O2)cc1O [HESPERIDIN]
- activity at 50 µM [5]: 51%

Molecule: O=C1C[C@@H](c2ccc(O)cc2)Oc2cc(O)cc(O)c21 [NARINGENIN]
- activity at 50 µM [6]: 10%

Molecule: C[C@@H]1O[C@@H](O[C@H]2[C@H](Oc3cc(O)c4c(c3)O[C@H](c3ccc(O)cc3)CC4=O)O[C@H](CO)[C@@H](O)[C@@H]2O)[C@H](O)[C@H](O)[C@H]1O [NARINGIN]
- activity at 5 µM [7]: 36%

Molecule: O=c1c(O)c(-c2ccc(O)c(O)c2)oc2cc(O)cc(O)c12 [QUERCETIN]
- activity at 5 µM [8]: 52%

Molecule: APPLE JUICE
- Activity [9]: inhibitor [(at a rough estimate) 5 % of control]
- Activity [10]: inhibitor [(at a rough estimate) 5 % of control]

Molecule: GRAPEFRUIT JUICE
- Activity [11]: inhibitor [(at a rough estimate) 10 % of control]
- Activity [12]: inhibitor [(at a rough estimate) 20 % of control]
- Activity [13]: inhibitor [(at a rough estimate) <0 % of control]
- Activity [14]: is not an inhibitor [-]

Molecule: ORANGE JUICE
- Activity [15]: inhibitor [(at a rough estimate) 10 % of control]
- Activity [16]: inhibitor [(at a rough estimate) <5 % of control]
- Activity [17]: inhibitor [(at a rough estimate) 25 % of control]
- Activity [18]: inhibitor [(at a rough estimate) 10 % of control]
